Reference: US20180179499A1, “BIOBASED PRODUCTION OF FUNCTIONALIZED ALPHA-SUBSTITUTED ACRYLATES AND C4-DICARBOXYLATES” (BIOAMBER INC., priority 2015, published 2018)

Legend:
E. coli = experiment: Host tolerance: growth rate with compound versus unchallenged cells; format: cell-based; conditions: pH 8, 30° C.
Protocol: Two eukaryotic strains, I. orientalis and S. cerevisiae, were tested at pH 3 and pH 5. Three bacterial strains were tested using their individual optimal conditions. E. coli and C. glutamicum were tested at pH 8 and 30° C., and B. firmus was tested at pH 9 and 37° C. I. orientalis was grown in defined yeast media consisting of 5 g/L ammonium sulfate, 0.5 g/L magnesium sulfate heptahydrate, 3 g/L potassium phosphate monobasic, 10 g/L dextrose, 1 mL/L of 10% glycerol stock, 1 mL/L of 1000× trace. The 1000× trace stock solution contains 4 g/L ZnSO4.7H2O, 2 g/L FeSO4.7H2O, 1 g/L MnSO4.H2O, 0.2 g/L CuSO4.5H2O, and 0.8 mL/L H2SO4. […]
Time points were taken over a period of at least 8 hours and up to 24 hours to calculate the rate of growth. Specific growth rate was determined by plotting the natural logarithm of cell number against time. Tolerance was determined by growth rate of cells in the presence of the compound as compared to in the absence of the compound. […]
(§1) Time points were taken over a period of at least 8 hours and up to 24 hours to calculate the rate of growth. Specific growth rate was determined by plotting the natural logarithm of cell number against time. Tolerance was determined by growth rate of cells in the presence of the compound as compared to in the absence of the compound.

[1] = system: potential bacterial hosts (E. coli, C. glutamicum, B. firmus, B. cohnii); experiment: Tolerance of potential bacterial hosts: highest concentration with growth observed; format: cell-based; conditions: Table F, max conc tested 100 g/L
Protocol: (§2) Two eukaryotic strains, I. orientalis and S. cerevisiae, were tested at pH 3 and pH 5. Three bacterial strains were tested using their individual optimal conditions. E. coli and C. glutamicum were tested at pH 8 and 30° C., and B. firmus was tested at pH 9 and 37° C. I. orientalis was grown in defined yeast media consisting of 5 g/L ammonium sulfate, 0.5 g/L magnesium sulfate heptahydrate, 3 g/L potassium phosphate monobasic, 10 g/L dextrose, 1 mL/L of 10% glycerol stock, 1 mL/L of 1000× trace. The 1000× trace stock solution contains 4 g/L ZnSO4.7H2O, 2 g/L FeSO4.7H2O, 1 g/L MnSO4.H2O, 0.2 g/L CuSO4.5H2O, and 0.8 mL/L H2SO4. S. cerevisiae was grown in buffered defined dextrose media consisting of 50 g/L dextrose, 5 g/L yeast extract, and 40 mL/L 25× DM salts. The 25× DM salt stock solution contains 125 g/L ammonium sulfate, 12.5 g/L magnesium sulfate heptahydrate, 75 g/L potassium phosphate monobasic, and 787.5 g/L water. The bacterial strains were grown in standard LB media consisting of 10 g/L bacto-tryptone, 5 g/L yeast extract, 10 g/L NaCl, and 20 g/L dextrose with addition of 20 g/L glucose.
as §1
(§3) Two eukaryotic strains, I. orientalis and S. cerevisiae, were tested for tolerance to the selected compounds at pH 3 and pH 5. The bacterial strains were grown at their individual optimal conditions, E coli and C. glutamicum at pH 8 and 30° C., and B. firmus and B. cohnii at pH 9 and 37° C. I. orientalis was grown in defined yeast media consisting of 5 g/L ammonium sulfate, 0.5 g/L magnesium sulfate heptahydrate, 3 g/L potassium phosphate monobasic, 10 g/L dextrose, 1 mL/L of 10% glycerol stock, 1 mL/L of 1000× trace. The 1000× trace stock solution contains 4 g/L ZnSO4.7H2O, 2 g/L FeSO4.7H2O, 1 g/L MnSO4.H2O, 0.2 g/L CuSO4.5H2O, and 0.8 mL/L H2SO4. S. cerevisiae was grown in buffered defined dextrose media consisting of 50 g/L dextrose, 5 g/L yeast extract, and 40 mL/L 25×DM salts. The 25×DM salt stock solution contains 125 g/L ammonium sulfate, 12.5 g/L magnesium sulfate heptahydrate, 75 g/L potassium phosphate monobasic, and 787.5 g/L water. The bacterial strains were grown in standard LB media consisting of 10 g/L bacto-tryptone, 5 g/L yeast extract, 10 g/L NaCl, and 20 g/L dextrose with addition of 20 g/L glucose.
as §1

B. firmus = experiment: Host tolerance: growth rate with compound versus unchallenged cells; format: cell-based; conditions: pH 9, 37° C.
Protocol: (§4) Potential hosts for the described pathways to alpha substituted C4 dicarboxylic acids were identified by determining the tolerance to functionalized alpha substituted dicarboxylic acids as shown in FIG. 2. Specific functionalized alpha substituted C4 dicarboxylic acid compounds were selected to assess tolerance of bacterial and eukaryotic hosts.
as §2
(§5) Time points were taken over a period of at least 8 hours and up to 24 hours to calculate the rate of growth. Specific growth rate was determined by plotting the natural logarithm of cell number against time. Tolerance was determined by growth rate of cells in the presence of the compound as compared to in the absence of the compound. The scoring method is indicated in Table D. The results of the tolerance studies are shown in Tables E and F. The second column from the left denotes the maximum concentration of the indicated compound in which growth was detected. […] I. orientalis is also a suitable host for most of the compounds.
(§6) Potential hosts for the described pathways to alpha substituted acrylic acid were identified by determining the tolerance to functionalized alpha substituted acrylic acid end-products as shown generally in FIGS. 1 and 3 and more specifically in FIGS. 9 and 10. […]
(§7) Time points were taken over a period of at least 8 hours and up to 24 hours to calculate the rate of growth. Specific growth rate was determined by plotting the natural logarithm of cell number against time. […]

C. glutamicum = experiment: as above; format: cell-based; conditions: pH 8, 30° C.
Protocol: as §4, §2, §5, §6, §7

[2] = system: potential yeast hosts (I. orientalis, S. cerevisiae); experiment: Tolerance of potential yeast hosts: maximum concentration in which growth was detected; format: cell-based; conditions: Table E
Protocol: as §2, §1, §3, §1

[3] = Dehydration of HM3HP to HMA at different temperature and pH (NMR); format: physicochemical; conditions: overnight
Protocol: In the case of the microorganism producing alpha-substituted 3-hydroxymethyl acid, such as in Examples 9 and 21, this compound is dehydrated to alpha-substituted acrylic acid. In one embodiment, alpha-hydroxymethyl 3-hydroxypropionic acid (HM3HP) is dehydrated to alpha-hydroxymethyl acrylic acid (HMA). A known amount of HM3HP was dissolved into buffered solution. […] Samples were incubated at −20° C., 30° C., or 70° C. overnight. NMR analysis was used to measure the amount of HM3HP that was dehydrated to HMA. […] The pH of the solution had more effect on conversion to HMA than did changes in temperature.

E coli = experiment: Host tolerance to hydroxymethyl-3HP, relative OD after 24 hours; format: cell-based; conditions: 24 hours incubation at 30° C.
Protocol: (§8) FIG. 33(a) presents comparative tolerance data of potential host organisms to 3-hydroxymethyl 3-hydroxypropionic acid (HM3HP) where Km=K. marxianus, Sc=S. cerevisiae, Ec=E. coli (from Example 17). Within each grouping, the right bar represents Ec, the left bar represents Km, and the middle bar represents Sc.
as §3
(§9) In one embodiment, alpha substituted 3-hydroxypropionic acid is produced by the host organism. In a specific embodiment, alpha hydroxymethyl 3-hydroxypropionic acid is produced by the host organism. To evaluate host organisms, the protocol described above was used. The relative OD at the end of 24 hours incubation at 30° C. was compared for Kluyveromyces marxianus, S. cerevisiae, and E coli in the presence of different amounts of hydroxymethyl-3HP (FIG. 33(a)).

Kluyveromyces marxianus = experiment: as above; format: cell-based; conditions: K. marxianus, 24 hours incubation at 30° C.
Protocol: as §8, §3, §9

S. cerevisiae = experiment: as above; format: cell-based; conditions: 24 hours incubation at 30° C.
Protocol: as §8, §3, §9

[4] = Dehydratase assay: lysate incubated with itatartaric acid, HPLC/NMR; format: biochemical; conditions: knockout E coli strains (acnA or acnB deleted), lysate with ITT overnight at 30° C., HPLC
Protocol: E. coli optimized genes encoding dehydratases are synthesized and cloned into pTrcHisA (Life Technologies (formerly Invitrogen)). Dehydratase candidates are found in Table I. Plasmids containing the optimized synthase genes are transformed into BL21 E. coli cells. Empty plasmid pTrcHisA are also transformed as a negative control. […]. Flasks are incubated at 30° C. at 250 rpm shaking for 2 hours, then protein production is induced with 0.2 mM IPTG and incubated for 4 more hours at 30° C. while shaking. Cells are harvested by centrifugation and pellets are stored at −80° C.
Cells are lysed using mechanical disruption using a BeadBeater (BopSpec products, Bartlesville, Okla.) using the manufacturer's instructions. […] Protein concentrations of the resulting clarified lysates are measured via BioRad total Protein assay using the manufacturer's instructions. […]
The reaction mixture contains 100 mM TAPS buffer pH 6.8, 100 mM KCl, 100 mM substrate alpha (hydroxymethyl) maleic acid. […] The reactions in these microplates are monitored at 235 nm. Readings are taken every 9 seconds for 10 minutes and the data is used to calculate activities of each enzyme. Background absorbance is measured by the same reaction with no substrate present are subtracted. […]
The lysates were incubated with or without a known amount of synthesized ITT overnight at 30° C., and then the samples were analyzed by HPLC. […]

O=C(O)CC1(C(=O)O)CCC(=O)O1 (centres unmarked) [Homocitrate lactone]
Tolerance score (percent growth rate as compared to unchallenged cells) (E. coli): +++ (100-90%)
Highest conc with growth observed [1]: 100 g/L
Tolerance score (percent growth rate as compared to unchallenged cells) (B. firmus): − (10-0%)
Tolerance score (percent growth rate as compared to unchallenged cells) (C. glutamicum): − (10-0%)
Max conc (maximum concentration in which growth was detected) [2]: 100 g/L

O=C(O)CC[C@@](O)(CC(=O)O)C(=O)O [Homocitrate]
Tolerance score (percent growth rate as compared to unchallenged cells) (E. coli): − (10-0%)
Highest conc with growth observed [1]: 50 g/L
Tolerance score (percent growth rate as compared to unchallenged cells) (B. firmus): − (10-0%)
Tolerance score (percent growth rate as compared to unchallenged cells) (C. glutamicum): +++ (100-90%)
Max conc (maximum concentration in which growth was detected) [2]: 100 g/L

O=C(O)C(CO)CO [alpha-hydroxymethyl 3-hydroxypropionic acid]
Relative HMA levels ([3]; pH 3, 30 C.): 0.00
Relative HMA levels ([3]; pH 3, 70 C.): 0.00
Relative HMA levels ([3]; pH 3, −20 C.): 0.00
Relative HMA levels ([3]; pH 7, 30 C.): 0.13
Relative HMA levels ([3]; pH 7, 70 C.): 0.18
Relative HMA levels ([3]; pH 7, −20 C.): 0.13
Relative HMA levels ([3]; pH 10, 30 C.): 1.18
Relative HMA levels ([3]; pH 10, 70 C.): 1.00
Relative HMA levels ([3]; pH 10, −20 C.): 0.81
Tolerated concentration (E coli): at least 60 g/L
Tolerated concentration (Kluyveromyces marxianus): at least 60 g/L
Tolerated concentration (S. cerevisiae): at least 60 g/L

B1: acnA: E coli aconitase acnA, endogenous dehydratase, GenBank CAA42834 (protein, UniProt P25516 2-891, looked up)
Aconitate hydratase A: SSTLREASKDTLQAKDKTYHYYSLPLAAKSLGDITRLPKSLKVLLENLLRWQDGNSVTEEDIHALAGWLKNAHADREIAYRPARVLMQDFTGVPAVVDLAAMREAVKRLGGDTAKVNPLSPVDLVIDHSVTVDRFGDDEAFEENVRLEMERNHERYVFLKWGKQAFSRFSVVPPGTGICHQVNLEYLGKAVWSELQDGEWIAYPDTLVGTDSHTTMINGLGVLGWGVGGIEAEAAMLGQPVSMLIPDVVGFKLTGKLREGITATDLVLTVTQMLRKHGVVGKFVEFYGDGLDSLPLADRATIANMSPEYGATCGFFPIDAVTLDYMRLSGRSEDQVELVEKYAKAQGMWRNPGDEPIFTSTLELDMNDVEASLAGPKRPQDRVALPDVPKAFAASNELEVNATHKDRQPVDYVMNGHQYQLPDGAVVIAAITSCTNTSNPSVLMAAGLLAKKAVTLGLKRQPWVKASLAPGSKVVSDYLAKAKLTPYLDELGFNLVGYGCTTCIGNSGPLPDPIETAIKKSDLTVGAVLSGNRNFEGRIHPLVKTNWLASPPLVVAYALAGNMNINLASEPIGHDRKGDPVYLKDIWPSAQEIARAVEQVSTEMFRKEYAEVFEGTAEWKGINVTRSDTYGWQEDSTYIRLSPFFDEMQATPAPVEDIHGARILAMLGDSVTTDHISPAGSIKPDSPAGRYLQGRGVERKDFNSYGSRRGNHEVMMRGTFANIRIRNEMVPGVEGGMTRHLPDSDVVSIYDAAMRYKQEQTPLAVIAGKEYGSGSSRDWAAKGPRLLGIRVVIAESFERIHRSNLIGMGILPLEFPQGVTRKTLGLTGEEKIDIGDLQNLQPGATVPVTLTRADGSQEVVPCRCRIDTATELTYYQNDGILHYVIRNMLK
Formation of ITT dehydration product [4]: capable of producing the observed dehydration product
